Reference: US4800201A, “1,4-thiazine derivative, and cardiotonic agent comprising it as effective component” (Zenyaku Kogyo Kabushiki Kaisha, priority 1984, dated 1989)

How the values were obtained:
[1] = system: isolated left atrium of guinea pig; assay: Effect on isolated left atrium of guinea pig (Pharmacological Test 1, Table 1); parameters: species or system guinea pig (male Hartley); details: 1×10^-4 mole, electrically stimulated 0.5 cps, 30° to 32° C.
Description: Effect on isolated left atrium of guinea pig was tested according to the method described in Basic Lectures of Medicine Development, Volume V, Pharmacological Test Methods, Part 2, page 534 (1971) published by Chizin Shokan Kabushiki Kaisha in Japan. A 7-weeks-old male Hartley guinea pig (having body weight of about 350 g) was stunned by a blow on the head. The heart was cut out, and the left atrium was taken out in Krebs-Henseleit solution (prepared by adding distilled water for injection to 6.92 g of sodium chloride, 0.35 g of potassium chloride, 0.28 g of calcium chloride, 0.29 g of magnesium sulfate, 0.16 g of mono-basic potassium phosphate, 2.1 g of sodium bicarbonate and 1.8 g of glucose so that the total amount was 1000 ml) which was sufficiently bubbled with oxygen gas. The isolated left atrium was suspended in Magnus' bath at 30° to 32° C. and isometric contraction was recorded by the pen-writing oscillograph through the strain pressure amplifier connected to the force displacement pickup.
The atrium was stimulated electrically at 0.5 cps for 5 msec under a voltage of 20% above threshold. The nutritive liquid was Krebs-Henseleit solution through which 95% oxygen gas and 5% carbon dioxide was blown. Effect of each sample was tested 60 to 90 minutes after stimulation at which the generated tension became stable. In this test, corresponding concentration of each sample was 1×10^-4 mole.

[2] = Acute toxicity, Litchfield-Wilcoxon method (Pharmacological Test 3, Table 3); details: mouse, in vivo, ip; intraperitoneal injection, 6-weeks-old male ddY mice
Description: The acute toxicity was determined according to the Litchfield-Wilcoxon method, J. Pharm. Exp. Ther., 96, 99 […] using 6-weeks-old male ddY mice (having body weight of 19-24 g) while administrating the sample compound in intraperitonial injection.

[3] = system: isolated auricule; assay: Effect on isolated auricule (Pharmacological Test 2, Table 2); parameters: species or system guinea pig (male Hartley); details: 3×10^-4 mole, 30°±1° C., recording 5 minutes; for activation at 300 µM: Cavia porcellus, 5 min, read-out: Increase in heart rate
Description: Effect on isolated auricule was tested according to the method of L. J. Mcleod described in Pharmacological Experiments on Intact Preparations, pages 112-115 (1970). A 7-weeks-old male Hartley guinea pig (having body weight of about 350 g) was killed by a blow on the head. The heart was cut out, and all the tissues except for the auricule were cut away in Ringer-Locke solution (prepared by adding distilled water for injection to 9.0 g of sodium chloride, 0.25 g of potassium chloride, 0.15 g of calcium chloride and 1.0 g of glucose so that the total amount was 1000 ml). One of cotton threads, which were tied to each tip of the auricule, is attached to Magnus' bath and the other to the force displacement pickup. The Magnus' bath was maintained at 30°±1° C. through which oxygen gas was bubbled. When the rhythmic movement and contraction of cardiac muscle became constant, recording by the pen-writing oscillograph was started. After 1 minute, sample compound was injected and recording was conducted for 5 minutes. After completion of recording, the isolated auricule was washed with Ringer-Locke solution until the rhythmic movement and contraction of cardiac muscle became constant. After 30 minutes, recording by the pen-writing oscillograph was started again. In this test, corresponding concentration of each sample was 3×10^-4 mole.

Compound	Tension increment [1] [mg]	LD50 [2] [mg/kg]	Tension increment [3] [mg]	activation at 300 µM [3] [%]
CC1=C(c2ccnnc2)SCC(=O)N1	225 ± 123			
CC1=C(c2ccncc2Cl)SCC(=O)N1	426 ± 56			
CC1=C(c2ccncc2C=O)SCC(=O)N1	278 ± 56			
CC1=C(c2ccncc2C#N)SCC(=O)N1	214 ± 56			
CC1=C(c2ccncc2)SC(c2ccc(O)cc2)C(=O)N1 (stereo not shown)	230 ± 92			
CC1=C(c2ccncc2)SC(N2CCOCC2)C(=O)N1 (stereo not shown)	207 ± 47			
CC1=C(c2ccncc2)SC(C)C(=O)N1 (stereo not shown) [2,5-dimethyl-6-(4-pyridinyl)-2H-1,4-thiazin-3(4H)-one]	780 ± 93	230	158	2
CCC1SC(c2ccncc2)=C(C)NC1=O (stereo not shown) [2-ethyl-5-methyl-6-(4-pyridinyl)-2H-1,4-thiazin-3(4H)-one]	925 ± 32	130	226	2.4
CNC1SC(c2ccncc2)=C(C)NC1=O (stereo not shown) [5-methyl-2-methylamino-6-(4-pyridinyl)-2H-1,4-thiazin-3(4H)-one]	233 ± 46			
CC1=C(c2ccnc3ccccc23)SCC(=O)N1 [drawing 13]	300 ± 125			
CC1=C(c2ccnc3ccccc23)SCC(=O)N1 [drawing 25]			190	2.2
CC1=C(c2ccncc2)SCC(=O)N1 [drawing 26]			250	9.4
CC1=C(c2ccnc3ccccc23)SCC(=O)N1 [drawing 29]		270		
CC1=C(c2ccncc2)SCC(=O)N1 [drawing 30]		275		
